From US4859186A, “Pulpotomy agent and method of use” (priority 1988, dated 1989)

Experiments:
[1] = biological target: bovine serum albumin (BSA) in collagen-BSA gel wafers (Bos taurus, UniProt P02769); test: Collagen-BSA gel wafer assay: BSA diffusing from gel after fixation; details: for % of control retained (diluted 10 fold) / % change relative to fresh glutaraldehyde / % of control retained / % change relative to freshly prepared 4% glutaraldehyde: diluted 10 fold
Excerpt: (§1) Two assays were used to evaluate the effectiveness of the composition of the present invention as a pulpotomy agent. The first was based on the diffusion of bovine serum albumin (BSA) from collagen-BSA gel wafers following fixation. That methodology was based on the method described in Flitney, F. W., "The time course of the fixation of albumin by formaldehyde, glutaraldehyde, acrolein and other higher aldehydes," 85 J. Royal Microscop. […] 353 (1966)). The collagen-BSA gel was formulated by Flitney to simulate the cytoplasm of the cell. Diffusion of BSA from the gel was intended to provide a reproducible model by which the relative change in the rate of leakage of protein through the cell membrane could be monitored during fixation with different techniques. This procedure was also modified as described in Example III to allow the evaluation of the depth of penetration of the composition of the present invention into adjoining cells of the pulpal tissue. The second assay was the determination of residual lactate dehydrogenase activity (LDH) in bovine pulp following treatment with the composition of the present invention.
The effectiveness of the fixative ability of the pulpotomy agent of the present invention was assayed according to the method set out in Flitney, supra. Briefly, that method is as follows. Collagen gels (0.3 g/2.8 ml) were prepared containing a physiological salt solution and bovine serum albumin (1 g BSA/10 ml). The mixture was dissolved in a boiling water bath and measured amounts were pipetted into plastic vials. Collagen-BSA wafers were removed from the vials and incubated in a buffered glutaraldehyde solution and the 4% glutaraldehyde-containing pulpotomy agent prepared as described in Example I, above, for 4 minutes. Wafers treated with distilled water or sodium phosphate buffer for identical time periods were used as respective controls. Following incubation, relative fixation of protein in the gels was ascertained by measuring the amount of BSA which diffuses from the gels into 4 ml of water during a 30 minute period. BSA was quantified by the method described by Bradford, M. M., "A rapid and sensitive method for quantification of microgram quantities of protein utilizing the principles of protein dye binding," 72 Anal. Biochem. 248 (1976).
The quantity of BSA which diffused from each gel is reported below as a percentage of control lost or retained.

[2] = biological target: bovine serum albumin (BSA) in collagen-BSA gels (Bos taurus, UniProt P02769); test: Penetration (depth of fixation) assay: collagen-BSA gels submerged intact in vials
bovine serum albumin (BSA) in collagen-BSA gels, sequence (P02769 25-607): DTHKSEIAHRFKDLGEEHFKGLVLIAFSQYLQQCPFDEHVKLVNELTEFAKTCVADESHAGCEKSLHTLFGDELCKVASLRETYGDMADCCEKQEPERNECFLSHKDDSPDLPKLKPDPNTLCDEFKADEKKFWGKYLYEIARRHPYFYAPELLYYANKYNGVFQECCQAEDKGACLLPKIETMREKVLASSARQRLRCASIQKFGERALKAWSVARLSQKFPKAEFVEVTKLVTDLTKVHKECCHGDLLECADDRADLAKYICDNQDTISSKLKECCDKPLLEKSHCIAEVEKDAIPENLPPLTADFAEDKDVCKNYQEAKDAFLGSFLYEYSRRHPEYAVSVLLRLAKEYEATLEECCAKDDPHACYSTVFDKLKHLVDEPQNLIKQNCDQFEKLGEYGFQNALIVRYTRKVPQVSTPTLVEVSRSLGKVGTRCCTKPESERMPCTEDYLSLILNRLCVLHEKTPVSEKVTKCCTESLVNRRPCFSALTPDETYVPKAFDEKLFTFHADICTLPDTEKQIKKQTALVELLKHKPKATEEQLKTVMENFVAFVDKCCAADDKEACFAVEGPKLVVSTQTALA
Excerpt: as §1

[3] = system: lactate dehydrogenase (LDH) in bovine pulp; test: Residual LDH activity in calf pulp after treatment; format: biochemical
Excerpt: as §1
The effectiveness of the pulpotomy agent prepared as described in Example I, above, was also evaluated by an assay for residual LDH Activity. In this assay, calf pulp was harvested from freshly extracted molars, minced into pieces of approximately 1 mm^3, divided into aliquots weighing approximately 0.5 g, and stored at -20° C. until used. After thawing each aliquot was wet weighed and incubated in the 4% glutaraldehyde-containing pulpotomy agent prepared as described in Example I for 4 minutes. The treated sample was homogenized for one minute in ten ml of 0.2M Tris, pH 7.3, using a homogenizer. Following centrifugation for ten minutes at 300 rpm on a clinical centrifuge, the supernatant was decanted. One hundred microliters of the supernatant was added to a cuvette containing 2.8 ml Tris HCl, 1.0 ml of […], and 0.1 ml of 30 mM sodium pyruvate and vortexed for 10 seconds. The change in absorbence per minute was recorded on a spectrophotometer at 345 nm at room temperature. The activities were calculated as units/g wet weight/min, and the mean was calculated for five samples in each group. The values are reported as a percentage of controls and statistics were the same as described in Example II, above.

[4] = stored at room temperature (25° C.) for eight months

bovine serum albumin (BSA) in collagen-BSA gel wafers, sequence (P02769 25-607): as above

## O=CCCCC=O [4% Glutaraldehyde, glutaraldehyde]
[1]; Fresh, mean of four samples
  % of control retained (diluted 10 fold): 80%
[1]; Fresh, heat assay, mean of four samples
  % of control gel retained: 80%
[1]; Fresh, mean of six samples
  % of control retained (undiluted solutions): 85%
[1]; Heated at 37° C. for 3 Months
  % change relative to fresh glutaraldehyde: -34%
  % of control retained: 53%
[1]; Heated: storage at 37° C. for three months
  % of control gel retained: 53%
[1]; Stored at 25° C. for 3 Months
  % change relative to fresh glutaraldehyde: -21%
  % of control retained: 63%
[1]; cold nine months
  % change relative to freshly prepared 4% glutaraldehyde: -8%
[1]; made up fresh, mean of four samples
  % of control retained: 80%
[1]; room temperature nine months
  % change relative to freshly prepared 4% glutaraldehyde: -11%
[1]; [4]
  % of control retained (undiluted solutions): 85%
[1]; stored at room temperature for nine months
  % of control retained (diluted 10 fold): 72%
[1]; stored cold (5° C.) for eight months
  % of control retained (undiluted solutions): 85%
[1]; stored in the cold for nine months
  % of control retained (diluted 10 fold): 72%
[1]; wafers incubated 4 minutes, BSA diffusing into 4 ml water during 30 minutes, five samples
  % of control retained (BSA in gel): 78%
[2]; 2, 4, and 8 percent solutions, FIG. 2
  secondary diffusion of BSA (depth of penetration): decreased by approximately the same amount
[2]; vials with gels intact submerged 4 minutes, five samples
  % of control retained (BSA in gel, penetration): 27%
[3]; Fresh, mean of 5 samples
  % of control retained (LDH activity): 6%
[3]; calf pulp incubated 4 minutes, five samples
  % of control retained (residual LDH activity): 3.0%
[3]; different concentrations for any treatment time, FIG. 3
  LDH inhibition versus concentration: log-dose response
[3]; [4]
  % of control retained (LDH activity): 3%
[3]; stored in the cold (5° C.) for eight months
  % of control retained (LDH activity): 4%
